Experimental data published in ChEMBL document CHEMBL3832028, “DailyMed|setid=372af566-d6ec-446f-88db-0b4cc83b577f | GLYBURIDE AND METTFORMIN HYDROCHLORIDE - glyburide and hydrochloride tablet, film coated| Citron Pharma LLC”.

Assay: Tmax for Glyburide following single oral co-administration of 5 mg glyburide and 500 mg metformin hydrochloride to feeding subjects.
Type: ADME, organism-based
Details: human, in vivo, dietary status Fed, dosed compound id 13, dosed compound name GLYBURIDE, regimen Single dose, tissue Plasma

Tmax: 2.75 h
SMILES: COc1ccc(Cl)cc1C(=O)NCCc1ccc(S(=O)(=O)NC(=O)NC2CCCCC2)cc1 [GLYBURIDE]
